We go through 1 compound from article PMC8042910, “Adiponectin-mimetic novel nonapeptide rescues aberrant neuronal metabolic-associated memory deficits in Alzheimer’s disease” (Molecular Neurodegeneration, 2021).

The test system of one data set is AdipoR1/p-AMPK signaling. In words: AdipoR1/p-AMPK signaling in in vitro AD models (immunoblot, ELISA, AMPK assay). The note with it: 10 μM, 12 h. Format: cell-based, human. The method, then: Human neuroblastoma SH-SY5Y cells were seeded (in 6-well culture plates for immunoblotting and in chamber slides for immunofluorescence) in DMEM (Dulbecco’s modified Eagle medium) containing 10% fetal bovine serum (FBS) and 1% antibiotics (penicillin-streptomycin) and incubated at 37 °C in humidified air containing 5% CO2. Once the cells reached 70–80% confluence, the cells were transfected using the pCAX vector containing the APPswe/ind gene using Lipofectamine 3000 (Life Technologies) according to the provider’s protocols. […]
SH-SY5Y (2×10^4/ml) cells used for ELISA and AMPK assays were cultured in 35-mm dishes in the presence of culture medium of DMEM containing FBS (10%) and antibiotics (1%) at 37°C in humidified air containing 5% CO2 to 70-75% confluences. […] Seventy-two hours after transfections, cells were treated with Os-pep (10 µM) for 12 h and cell lysates were collected and analyzed using ELISAs and immunoassays, as appropriate.
The AdipoR1 expressions were measured in the brain homogenates from APP/PS1 and Adipo-^/- mice and in lysates from APPswe/ind-overexpressed SH-SY5Y cells transfected with the AdipoR1 siRNA and treated Os-pep (10 µM) in vitro using the mouse and human AdipoR1 ELISA kits, accordingly to the provider’s instructions (MyBioSource). […]
(Immunoblotting shows a protein as a band on a membrane.)

Data set [1] in a line: Stability and half-life of Os-pep in mouse plasma. It counts as in vitro ADME. The note with it: 37 °C, LC-MS/MS. On the procedure:
The stability of Os-pep in mouse plasma was evaluated. An aqueous stock solution of Os-pep was added to each mouse plasma sample (n= 3) at a final concentration of 1 μg/mL. Tubes were placed in a Thermomixer (Eppendorf, Germany) and maintained at 37 °C with rotation at 300 rpm. These samples were incubated for up to 2 h. The amount of peptide remaining after the incubation was immediately determined by liquid chromatography-tandem mass spectrometry (LC-MS/MS). At different time intervals, an aliquot (100 μL) of ice-cold acetonitrile containing 0.1 μg/mL gabapentin (internal standard) was added to a 50 μL aliquot of the sample. Deproteinized samples were analyzed after vortex-mixing and centrifugation.

The subject of the next data set is mice. In words: Safety of chronic optimized dosage regimen in mice. Format: in vivo, mouse. The note with it: 5 μg/g, i.p. On the procedure:
Os-pep was dissolved in double-deionized distilled water and then prepared in normal saline to obtain the final administered concentration. The AβO, APP/PS1, Adipo^−/− and WT mice were injected i.p. with Os-pep at a dosage of 5 μg/g on alternating days for 45 days. WT, Veh-injected transgenic-APP/PS1 and Adipo^−/− mice were injected with the same volume of double-deionized water and normal saline. The WT control and sham mice as well as the Veh-injected AβO, APP/PS1, Adipo^−/− and HFD mice received the same volume of double-deionized distilled water or normal saline.
We monitored and weighed the mice three times per week to examine the effect of Os-pep dosage regimen (5 µg/g, i.p., on alternating days for 45 days) on the animals’ body weights. At the completion of the treatment, we calculated the average change in the body weight of the mice. At the completion of the treatments and behavioral experiments, blood samples were collected by cardiac puncture of the right atrium. […]

Another data set deals with SH-SY5Y cells. Description: ApoTox-Glo Triplex assay (viability, cytotoxicity, caspase 3/7), AβO-exposed cells. It counts as cell-based, human. To be noted: AβO 1 μM, 12 h. The method, then: The ApoTox-Glo^TM Triplex assay (Promega, Madison, WI) was performed to assess the viability, cytotoxicity and caspase^3/7 activation in the human neuroblastoma SH-SY5Y and mouse hippocampal HT22 cells. SH-SY5Y and HT22 cells (2×10^4/ml) were cultured in 96-well plates (Thermo Fisher Scientific) containing DMEM supplemented with 10% FBS and 1% antibiotics and incubated at 37°C in a humidified incubator containing 5% CO2. After reaching 70% confluency, the cells were treated with AβO (1 µM) and different concentrations of Os-pep (0.5, 1, 5 and 10 µM) for 12 h. The control group (cells treated with 0.01% DMSO) was also analyzed. In addition, SH-SY5Y and HT22 cells were transfected with the AdipoR1 siRNA (h) (SC-60123) and AdipoR1 siRNA (m) (SC-60124), respectively, and treated with AβO (1 µM) and Os-pep (10 µM) for 12 h; the control group was transfected with the negative siRNA (Ambion, Thermo Fisher Scientific) and treated with 0.01% DMSO. The assay was performed according to our previously described protocols.

Residues, ends and D or L forms follow the SMILES beside them.

In the case of `C[C@@H](O)[C@H](NC(=O)[C@@H]1CCCN1C(=O)CNC(=O)[C@H](CS)NC(=O)[C@@H]1CCCN1C(=O)CNC(=O)[C@H](CCC(N)=O)NC(=O)[C@@H](NC(=O)[C@@H](N)CS)[C@@H](C)O)C(=O)O` [Os-pep] (H-CTQGPCGPT-OH; N-terminus and C-terminus assumed), the “AdipoR1/AMPK signaling with AdipoR1 knockdown” value with AdipoR1/p-AMPK signaling (APPswe/ind SH-SY5Y with AdipoR1 siRNA, ELISA and AMPK assay) is “did not promote the stimulation of AdipoR1/AMPK signaling”. In addition, the “neuronal AdipoR1/p-AMPK signaling” value in the data set with AdipoR1/p-AMPK signaling (AβO-treated and human APPswe/ind-overexpressing SH-SY5Y cells) is recorded as “significantly increased neuronal AdipoR1/p-AMPK signaling”. In addition, in data set [1] (1 μg/mL, incubated up to 2 h, n = 3, first-order kinetics), the “half-life (t1/2)” value is reported as “approximately 2 h”. Moreover, the remaining at 2 h, 1 μg/mL in data set [1] (300 rpm, after 2 h, n = 3, 0 min set to 100%, read-out: initial concentration remained) worked out at 53%. Besides, the half-life at 1 μg/mL in data set [1] (triplicate samples, read-out: Half-life (printed in Fig. 8c) (converted)) was 2.03 h. Moreover, the “liver or kidney dysfunction (serum biochemical parameters)” value with mice (alternating days for 45 days, APP/PS1, HFD and Adipo−/− mice) was “did not induce liver or kidney dysfunction”. Moreover, the “undesirable effects of chronic Os-pep treatment alone” value in the data set with mice (on alternating days for 45 days, Os-pep alone) is given as “did not induce any undesirable effects”. Further, the “AβO-induced toxicity with AdipoR1 siRNA” value with SH-SY5Y cells (AdipoR1 siRNA-transfected SH-SY5Y, Os-pep 10 μM) is given as “did not reduce the AβO-induced toxicity”. Moreover, in the data set with SH-SY5Y cells (SH-SY5Y, Os-pep 10 μM), the “AβO neurotoxicity (viability, cytotoxicity, caspase 3/7)” value is reported as “significantly reduced AβO (1 μM) neurotoxicity”. The “neurotoxic effects of AβO” value in the data set with SH-SY5Y cells (SH-SY5Y, cotreatment 0.5, 1, 5 and 10 μM) is recorded as “reduced the neurotoxic effects of AβO”.

In general, half-life refers to how long it takes for the measured level to halve.
